Tests used:
Format in all cases: biochemical, bovine
[1] = target: T1, PI3-kinase p110 subunit alone (wild type, recombinant, expressed in Sf9 cells) (Bos taurus, UniProt P32871); experiment: in vitro PI3-kinase assay on anti-p110 immunoprecipitates, p110 alone; settings: DTT alone, final concentration 300 mM; FIG. 17 A lane 8
T1 construct: made in house; host or cells: Sf9 insect cells (baculovirus)
Method: (§1) Insect cells were infected with p85α/p110 complex, (see FIG. 17, A, lanes 1-6) or p110 alone, (see FIG. 17, B, lanes 7-12). The immunoprecipitates were washed twice with PI3-kinase buffer (20 mM Tris-HCl, pH 7.5, 100 mM NaCl, 0.5 mM EDTA). The samples were untreated or treated with 0.3 mM 5,5'-Dithio-bis [2-nitrobenzoic acid] (Nbs2) for 15 minutes at 22° C. Excess reagent was removed by washing the complexes three times with PI3-kinase buffer and the immunoprecipitate was then incubated for 15 minutes at 22° C. with increasing concentrations of dithiothreitol (DTT). A control sample was incubated with DTT alone at a final concentration of 300 mM. The remaining DTT was removed by washing with lysis buffer and the immunoprecipitates were subjected to PI3-kinase assays or to in vitro protein kinase assays described below.
(§2) The experiment was carried out and the experimental results set forth in FIG. 17, A. In vitro PI3-kinase assays were performed on anti-p110 immunoprecipitates of these cells that had been treated as follows: untreated (see FIG. 17, A, lane 1 and 7); 300 mM DTT (lanes 2 and 8); treated with 0.3 mM Nbs2 (lanes 3 and 9); immunoprecipitates pretreated with 0.3 mM Nbs2 incubated with 3 mM DTT (lanes 4 and 10), 30 mM DTT (lanes 5 and 11); 300 mM DTT (lanes 6 and 12).

[2] = target: T2, PI3-kinase p85α/p110 complex (wild type, recombinant, expressed in Sf9 cells) (Bos taurus, UniProt P32871); experiment: in vitro PI3-kinase assay on anti-p110 immunoprecipitates, p85α/p110 complex; settings: DTT alone, final concentration 300 mM; FIG. 17 A lane 2
T2 construct: made in house; host or cells: Sf9 insect cells (baculovirus co-infection)
Method: as §1, §2

[3] = target: T3, PI3-kinase p85α/p110 complex (wild type p110, recombinant, expressed in Sf9 cells), protein-serine kinase activity (Bos taurus, UniProt P32871); experiment: in vitro protein-serine kinase assay (phosphorylation of p85α) on anti-p110 immunoprecipitates of p85α/p110; settings: DTT alone, final concentration 300 mM; FIG. 17 B lane 2
T3 construct: made in house; host or cells: Sf9 insect cells (baculovirus co-infection)
Method: Anti-p110 immunoprecipitates of p85α/p110 were used to study the kinetics of phosphorylation. The Km (ATP) for the phosphorylation of p85α was measured as approximately 4 μM. The stoichiometry of phosphorylation of p85α was then measured in the presence of excess ATP (50 μM). Approximately 0.9 mol of phosphate was incorporated into one mol of p85α protein.
A further experiment to determine in vitro kinase activity with treatment of Nbs2 and DTT was also conducted. Lysates of Sf9 cells that had been coinfected with p85α/p110 baculoviruses were also treated as follows: the lysates were immunoprecipitated with anti-p110 antibodies and treated as follows: untreated (see FIG. 17, B, lane 1); 300 mM DTT (lane 2); 0.3 mM Nbs2 (lane 3); pretreated with 0.3 mM Nbs2 and then incubated with 3 mM DTT, 30 mM DTT, 300 mM DTT (lanes 4, 5, 6 respectively). Samples were then subjected to in vitro kinase assays and analysis by SDS-PAGE was conducted. Phosphorylated proteins were visualized by autoradiography.
The p110 protein was immunoprecipitated from insect cells, and equal amounts of each GST fusion protein or the GST protein alone, were mixed with p110 and the proteins were allowed to phosphorylate in vitro. […] Phosphorylated proteins were analyzed by SDS-PAGE and autoradiography.

T2 sequence (P32871 whole entry): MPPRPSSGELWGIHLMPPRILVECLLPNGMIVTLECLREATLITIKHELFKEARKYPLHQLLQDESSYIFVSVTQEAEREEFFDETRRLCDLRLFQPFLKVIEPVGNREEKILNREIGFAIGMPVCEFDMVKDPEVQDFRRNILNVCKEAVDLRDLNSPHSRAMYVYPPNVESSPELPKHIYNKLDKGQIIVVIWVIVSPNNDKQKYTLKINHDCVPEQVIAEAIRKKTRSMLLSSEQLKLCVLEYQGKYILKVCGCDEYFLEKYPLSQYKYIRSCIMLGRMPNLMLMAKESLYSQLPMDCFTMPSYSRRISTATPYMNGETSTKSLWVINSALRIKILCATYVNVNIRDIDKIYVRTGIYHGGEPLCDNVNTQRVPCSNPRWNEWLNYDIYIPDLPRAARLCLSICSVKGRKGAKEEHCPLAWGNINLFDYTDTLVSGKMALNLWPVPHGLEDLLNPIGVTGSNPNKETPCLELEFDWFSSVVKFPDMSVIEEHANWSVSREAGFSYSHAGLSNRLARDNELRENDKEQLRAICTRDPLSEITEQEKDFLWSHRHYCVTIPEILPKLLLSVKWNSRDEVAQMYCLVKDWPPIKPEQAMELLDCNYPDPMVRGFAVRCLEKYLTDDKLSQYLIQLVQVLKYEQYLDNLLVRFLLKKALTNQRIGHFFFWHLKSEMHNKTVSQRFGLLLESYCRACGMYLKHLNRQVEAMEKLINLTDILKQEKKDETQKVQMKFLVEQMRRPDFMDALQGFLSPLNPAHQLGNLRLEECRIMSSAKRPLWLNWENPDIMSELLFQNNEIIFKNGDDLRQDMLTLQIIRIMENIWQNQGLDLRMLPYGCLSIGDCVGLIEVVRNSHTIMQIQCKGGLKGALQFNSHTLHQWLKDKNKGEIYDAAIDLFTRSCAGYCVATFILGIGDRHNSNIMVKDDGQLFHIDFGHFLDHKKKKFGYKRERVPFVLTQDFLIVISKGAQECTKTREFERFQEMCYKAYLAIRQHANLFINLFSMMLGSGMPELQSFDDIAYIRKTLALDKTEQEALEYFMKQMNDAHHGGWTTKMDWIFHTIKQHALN
T2 sequence (P23727 whole entry partner): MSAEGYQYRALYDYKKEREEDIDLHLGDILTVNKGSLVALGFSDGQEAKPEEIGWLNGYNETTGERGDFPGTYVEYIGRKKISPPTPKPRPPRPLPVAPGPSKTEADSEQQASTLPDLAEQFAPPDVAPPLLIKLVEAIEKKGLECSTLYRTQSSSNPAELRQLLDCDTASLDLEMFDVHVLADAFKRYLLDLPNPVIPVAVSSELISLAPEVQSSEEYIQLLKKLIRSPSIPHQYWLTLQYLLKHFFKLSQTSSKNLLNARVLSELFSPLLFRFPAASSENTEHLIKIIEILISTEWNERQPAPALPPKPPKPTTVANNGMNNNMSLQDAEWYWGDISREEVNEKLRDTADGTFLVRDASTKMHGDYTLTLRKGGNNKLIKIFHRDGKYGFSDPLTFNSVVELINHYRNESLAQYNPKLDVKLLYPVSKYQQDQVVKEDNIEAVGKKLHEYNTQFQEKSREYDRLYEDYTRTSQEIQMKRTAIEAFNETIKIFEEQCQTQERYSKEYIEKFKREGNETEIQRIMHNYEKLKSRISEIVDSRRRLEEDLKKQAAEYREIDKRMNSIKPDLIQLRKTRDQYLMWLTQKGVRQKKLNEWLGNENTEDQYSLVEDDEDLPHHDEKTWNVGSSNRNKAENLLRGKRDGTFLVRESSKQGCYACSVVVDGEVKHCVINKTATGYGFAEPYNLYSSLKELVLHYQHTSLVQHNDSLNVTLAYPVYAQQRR
T1 sequence (P32871 whole entry): as the sequence (P32871 whole entry) above
T3 sequence (P32871 whole entry): as above
T3 sequence (P23727 whole entry partner): as the sequence (P23727 whole entry partner) above

O[C@H](CS)[C@H](O)CS (racemic) [DTT, dithiothreitol]
slight activation: activation of PI3-kinase activity [1] | activation of PI3-kinase activity [2] | activation of protein serine kinase activity [3]

Source: US5741689A, “Methods to inhibit serine kinase activity and to alter intersubunit binding activity of phosphatidylinositol 3-kinase, and serine kinase active sequence of the same” (Ludwig Institute for Cancer Research, priority 1994, dated 1998)
